# Reference: PubChem BioAssay AID2036 (NMMLSC, 2009)
# The source made the active and inactive calls. No rule for the calls is given here.
# Target: Ras-related protein Rab7, wildtype (dog)
# Assay: extra analogs blocking nucleotide binding to Rab7 – biochemical, additional analogs, wildtype, multiplex bead flow cytometry, SAR follow-up (AID 2036)
# Conditions: Rab7 GTP binding
row,SMILES,EC50
1,O=C1C(c2c(O)[nH]c3c(Cl)cccc23)=Nc2ccccc21,inactive
2,O=C1C(c2c(O)[nH]c3ccccc23)=Nc2ccccc21,inactive
3,O=Nc1c(-c2c(O)[nH]c3ccccc23)[nH]c2ccccc12,inactive
4,O=C1N=c2ccccc2=C1c1[nH]c(=S)[nH]c1O,inactive
5,O=C1C(c2c(O)[nH]c3c(Br)cccc23)=Nc2ccccc21,inactive
6,O=C1C(c2c(O)[nH]c3c(F)cccc23)=Nc2ccccc21,inactive
7,O=C1N=c2ccccc2=C1c1[nH]c(=O)[nH]c1O,inactive
8,O=Nc1c(-c2c(O)[nH]c3ccc(Br)cc23)[nH]c2ccccc12,inactive

# Next, values leading:
row,EC50,SMILES
1,inactive,O=C1C(c2c(O)[nH]c3ccc(Br)cc23)=Nc2ccccc21
2,inactive,O=Nc1c(-c2c(O)[nH]c3c(F)cccc23)[nH]c2ccccc12
3,inactive,O=Nc1c(-c2c(O)[nH]c3c(Cl)cccc23)[nH]c2ccccc12
4,inactive,O=Nc1c(-c2c(O)[nH]c3c(Br)cccc23)[nH]c2ccccc12

# Same assay, conditions: Rab7 GTP binding, measured here: Ki from EC50
row,SMILES,Ki [nM]
1,O=C1N=c2ccccc2=C1c1[nH]c(=S)[nH]c1O,870
2,COc1ccc(S(=O)(=O)n2c(N)c(C#N)c(-c3cncc(Br)c3)c2C(=O)c2ccccc2)cc1,540
3,O=C1C(c2c(O)[nH]c3c(F)cccc23)=Nc2ccccc21,1560
4,COc1cc(-c2c(C#N)c(N)n(S(=O)(=O)c3c(C(C)C)cc(C(C)C)cc3C(C)C)c2C(=O)c2ccccc2)cc(OC)c1OC,2170

# Next, values leading:
row,Ki [nM],SMILES
1,310,CC(C)Cc1ccc([C@H](C)C(=O)O)cc1
2,2700,CSc1ccc(/C=C2/C(C)=C(CC(=O)O)c3cc(F)ccc32)cc1
